Data on 1 compound can be found in US5559150A, “N,N-disulfonylated aminobenzene carboxlic acids and the use thereof as thrombin inhibitors” (3-Dimensional Pharmaceuticals, Inc., priority 1995, dated 1996).

In test [1] the target is T1, Purified human α-thrombin (Homo sapiens, UniProt P00734).
T1 construct: Purified human α-thrombin; purchased Enzyme Research Laboratories Inc
The test can be described thus: In vitro inhibition of purified thrombin (hydrolysis of peptide p-nitroanilide substrate). The test is classed as biochemical. The procedure:
(§1) All assays are based on the ability of the test compound to inhibit the hydrolysis of a peptide p-nitroanilide substrate. In a typical experiment, substrate is prepared in DMSO, and diluted into an assay buffer consisting of 50 mM HEPES, 130 mM NaCl, pH 7.5. The final concentration for each of the substrates is listed below. All substrate concentrations are at least 10-fold lower than Km to insure inhibition is competitive. Test compounds are prepared as a 1 mg/ml solution in DMSO, and 3 additional 10-fold dilutions in DMSO are prepared. Enzyme solutions are prepared at the concentrations listed below in assay buffer.
(§2) In a typical IC50 determination, into each well of a 96 well plate is pipetted 280 uL of substrate solution, 10 μL of inhibitor solution, and the plate allowed to thermally equilibrate at 37° C. in a Molecular Devices Plate Reader for >10 minutes. Reactions were initiated by the addition of a 20 μL aliquot of enzyme, and the absorbance increase at 405 nm is recorded for 15 minutes. Data corresponding to less than 10% of the total substrate hydrolysis was used in the calculations. The ratio of the velocity (rate of the change in absorbance as a function of time) for a sample containing no inhibitor is divided by the velocity of a sample containing inhibitor, and is plotted as a function of inhibitor concentration. […]

The next test addresses T2, Factor Xa (Homo sapiens, UniProt P00742).
T2 construct: purchased Enzyme Research Laboratories Inc
Description: In vitro inhibition of purified Factor Xa (hydrolysis of peptide p-nitroanilide substrate). Format: biochemical. The conditions noted are these: Bz-Ile-Glu-Gly-Arg-pNa substrate; 10 nM Factor Xa; pH 7.5, 37° C. The method, then: as §1
as §2, with “Data corresponding to less than 10% of the total substrate hydrolysis was used in the calculations.” left out
Factor Xa activity was assessed as the ability to hydrolyse the substrate Bz-Ile-Glu-Gly-Arg-pNa (obtained from Sigma Chemical Company, St Louis, Mo.). […]

T2 sequence (P00742 235-488 limits assumed): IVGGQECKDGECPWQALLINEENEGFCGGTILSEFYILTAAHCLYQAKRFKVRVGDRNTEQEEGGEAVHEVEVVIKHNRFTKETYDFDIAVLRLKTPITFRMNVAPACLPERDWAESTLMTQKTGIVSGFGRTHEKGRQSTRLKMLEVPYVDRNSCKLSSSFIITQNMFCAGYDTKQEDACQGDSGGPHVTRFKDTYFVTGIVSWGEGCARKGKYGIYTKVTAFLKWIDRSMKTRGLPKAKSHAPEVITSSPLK
T2 sequence (P00742 41-179 partner limits assumed): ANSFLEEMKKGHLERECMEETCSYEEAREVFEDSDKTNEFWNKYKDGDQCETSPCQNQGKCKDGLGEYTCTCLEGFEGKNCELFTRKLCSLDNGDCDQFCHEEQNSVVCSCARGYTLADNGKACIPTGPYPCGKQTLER

Regarding `O=C(O)c1cccc(N(S(=O)(=O)c2ccc3ccccc3c2)S(=O)(=O)c2ccc3ccccc3c2)c1` [Example 4, 3-[Bis[(2-naphthalenyl)sulfonyl]amino]benzoic Acid], the IC50 in test [1] (Bz-Phe-Val-Arg-pNa substrate, 36 nM thrombin, pH 7.5, 37° C.) was 0.8 µM; against Factor Xa, 59 µM. In addition, the “inhibition of thrombin, potency and selectivity (in words)” value in test [1] (conclusion from Table 1, selectivity versus other serine proteases such as plasmin) was “selective and highly potent inhibitors of thrombin”.
